Type in all cases: biochemical
Experiment [1] has as its target T1, Ccb2 (Streptomyces caelestis, UniProt E9JET8).
T1 construct: recombinant, heterologously produced in and purified from E. coli; 548 residues
T1 sequence (E9JET8 1-548): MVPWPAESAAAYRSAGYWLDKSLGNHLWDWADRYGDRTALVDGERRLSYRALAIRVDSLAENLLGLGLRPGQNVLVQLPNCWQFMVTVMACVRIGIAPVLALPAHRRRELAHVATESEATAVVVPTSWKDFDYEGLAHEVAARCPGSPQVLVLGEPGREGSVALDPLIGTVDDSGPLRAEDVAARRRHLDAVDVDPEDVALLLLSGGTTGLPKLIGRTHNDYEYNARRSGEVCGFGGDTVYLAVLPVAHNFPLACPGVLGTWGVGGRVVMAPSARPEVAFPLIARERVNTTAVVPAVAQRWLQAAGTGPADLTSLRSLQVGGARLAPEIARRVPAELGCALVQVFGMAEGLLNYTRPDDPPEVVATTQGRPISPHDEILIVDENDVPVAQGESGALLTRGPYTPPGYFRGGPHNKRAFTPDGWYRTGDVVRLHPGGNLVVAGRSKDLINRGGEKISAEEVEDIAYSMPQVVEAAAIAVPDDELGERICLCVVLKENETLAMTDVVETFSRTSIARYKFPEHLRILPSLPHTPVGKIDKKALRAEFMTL
Description: LC-MS detection of acyl-AMP conjugate. The note with it: ATP.

In experiment [2] the target is T2, CcbF (Streptomyces caelestis, UniProt E9JES7).
T2 construct: recombinant celesticetin biosynthetic protein; construct not described in main text
T2 sequence (E9JES7 1-416): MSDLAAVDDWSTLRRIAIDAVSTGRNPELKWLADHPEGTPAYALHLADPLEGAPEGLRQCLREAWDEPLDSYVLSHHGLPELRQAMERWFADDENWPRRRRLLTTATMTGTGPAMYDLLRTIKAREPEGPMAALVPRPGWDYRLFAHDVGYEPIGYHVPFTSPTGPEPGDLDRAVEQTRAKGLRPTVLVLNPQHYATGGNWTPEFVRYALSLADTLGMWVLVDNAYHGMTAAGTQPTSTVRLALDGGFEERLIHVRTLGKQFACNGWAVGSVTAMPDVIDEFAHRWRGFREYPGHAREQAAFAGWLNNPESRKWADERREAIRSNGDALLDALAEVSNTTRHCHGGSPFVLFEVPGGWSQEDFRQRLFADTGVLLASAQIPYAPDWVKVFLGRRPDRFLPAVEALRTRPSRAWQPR
Briefly: LC-MS, in vitro cascade with Ccb5 and Ccb4. To be noted: PLP-dependent; coupled with Ccb5 and Ccb4 to intermediate 45.

Experiment [3] addresses T2, CcbF. Description: LC-MS, in vitro cascade with Ccb5 with or without Ccb4. The note with it: PLP-dependent; coupled with Ccb5.

From paper PMC5416915, “Elucidation of salicylate attachment in celesticetin biosynthesis opens the door to create a library of more efficient hybrid lincosamide antibiotics” (Chemical Science, 2017) come the findings set out here.

On to `O=C(O)c1ccccc1` [compound 6, benzoic acid], for which the “LC-MS detection of acyl-AMP conjugate” value in experiment [1] is given as “We detected products”.

Regarding `CCC[C@@H]1C[C@@H](C(=O)N[C@@H]([C@H]2O[C@H](SC[C@H](N)C(=O)O)[C@H](O)[C@@H](O)[C@H]2O)[C@@H](C)O)N(C)C1` [2a, lincomycin intermediate 2a], the “LC-MS, in vitro cascade with Ccb5 and Ccb4” value in experiment [2] is “in vitro processing of lincomycin intermediate 2a by the celesticetin biosynthetic proteins CcbF, Ccb5, and Ccb4”.

With `CCC[C@H]1CN[C@H](C(=O)N[C@@H]([C@H]2O[C@H](SC[C@H](N)C(=O)O)[C@H](O)[C@@H](O)[C@H]2O)[C@@H](C)O)C1` [1a, lincomycin intermediate 1a], the “LC-MS, in vitro cascade with Ccb5 with or without Ccb4” value in experiment [3] was “Lincomycin intermediates 1a and 2a processed by celesticetin biosynthetic proteins”.
